Test results reported in ChEMBL document CHEMBL3091452, “A prodrug approach toward cancer-related carbonic anhydrase inhibition” (J Med Chem, 2013).

What was measured:
Carbonic anhydrase 9 = Carbonic anhydrase 9 (Homo sapiens, UniProt Q16790)
Description: Inhibition of human carbonic anhydrase 9 by stopped-flow CO2 hydration assay

Albumin = Albumin (Homo sapiens, UniProt P02768); assay: Binding affinity to human serum albumin by chromatographic analysis; assay type: ADME; conditions: isolated protein
Carbonic anhydrase 12 = Carbonic anhydrase 12 (Homo sapiens, UniProt O43570)
Description: Inhibition of human carbonic anhydrase 12 by stopped-flow CO2 hydration assay

[1] = Degradation half life in human plasma at 5000 ng/mL by UPLC-MS analysis; assay type: ADME, cell-free
[2] = Permeability of the compound in human Caco2 cells assessed as mass balance in diffusion chamber at 15 uM after 90 mins; assay type: ADME, cell-based; conditions: Caco-2, read-out: permeability
Carbonic anhydrase 14 = Carbonic anhydrase 14 (Homo sapiens, UniProt Q9ULX7); assay: Inhibition of human carbonic anhydrase 14 by stopped-flow CO2 hydration assay
[3] = Intrinsic clearance in human liver microsomes at 1 uM after 2 to 60 mins by LCMS analysis in absence of NADPH; assay type: ADME; conditions: read-out: CLH
[4] = Permeability of the compound in human Caco2 cells assessed as mass balance in diffusion chamber at 20 uM after 90 mins; assay type: ADME, cell-based; conditions: Caco-2, read-out: permeability
[5] = Intrinsic clearance in human liver microsomes at 1 uM after 2 to 60 mins by LCMS analysis in presence of NADPH; assay type: ADME; conditions: read-out: CLH
Carbonic anhydrase 2 = Carbonic anhydrase 2 (Homo sapiens, UniProt P00918)
Description: Inhibition of human carbonic anhydrase 2 by stopped-flow CO2 hydration assay

Carbonic anhydrase 1 = Carbonic anhydrase 1 (Homo sapiens, UniProt P00915)
Description: Inhibition of human carbonic anhydrase 1 by stopped-flow CO2 hydration assay

[6] = Solubility of the compound in HEPES buffer at pH 7.4; assay type: physicochemical
[7] = Permeability of the compound in human Caco2 cells assessed as mass balance in diffusion chamber at 8 uM after 90 mins; assay type: ADME, cell-based; conditions: Caco-2, read-out: permeability

Chain of Albumin (P02768 whole entry): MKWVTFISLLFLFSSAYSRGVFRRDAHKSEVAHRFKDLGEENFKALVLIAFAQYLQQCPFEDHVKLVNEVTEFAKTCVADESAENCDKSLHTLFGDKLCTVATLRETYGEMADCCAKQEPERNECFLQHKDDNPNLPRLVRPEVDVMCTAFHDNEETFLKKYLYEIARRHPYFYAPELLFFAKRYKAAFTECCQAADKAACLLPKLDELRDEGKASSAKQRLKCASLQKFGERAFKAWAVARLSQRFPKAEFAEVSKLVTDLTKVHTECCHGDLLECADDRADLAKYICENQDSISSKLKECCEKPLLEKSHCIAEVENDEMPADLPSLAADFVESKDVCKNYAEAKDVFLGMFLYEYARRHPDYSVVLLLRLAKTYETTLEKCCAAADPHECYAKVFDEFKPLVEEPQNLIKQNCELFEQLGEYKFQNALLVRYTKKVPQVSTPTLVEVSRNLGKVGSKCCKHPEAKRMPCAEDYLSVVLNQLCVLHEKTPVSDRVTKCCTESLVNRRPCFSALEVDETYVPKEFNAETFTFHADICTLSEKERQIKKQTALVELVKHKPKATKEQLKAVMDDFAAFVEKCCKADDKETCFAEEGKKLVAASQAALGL
Chain of Carbonic anhydrase 1 (P00915 whole entry): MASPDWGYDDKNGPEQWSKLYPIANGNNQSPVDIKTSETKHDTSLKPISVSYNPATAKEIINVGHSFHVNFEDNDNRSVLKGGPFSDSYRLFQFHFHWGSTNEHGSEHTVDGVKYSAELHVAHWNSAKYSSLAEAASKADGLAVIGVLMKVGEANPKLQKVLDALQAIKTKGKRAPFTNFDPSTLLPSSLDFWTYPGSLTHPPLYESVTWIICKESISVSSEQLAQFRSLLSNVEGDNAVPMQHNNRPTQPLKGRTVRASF
Chain of Carbonic anhydrase 14 (Q9ULX7 whole entry): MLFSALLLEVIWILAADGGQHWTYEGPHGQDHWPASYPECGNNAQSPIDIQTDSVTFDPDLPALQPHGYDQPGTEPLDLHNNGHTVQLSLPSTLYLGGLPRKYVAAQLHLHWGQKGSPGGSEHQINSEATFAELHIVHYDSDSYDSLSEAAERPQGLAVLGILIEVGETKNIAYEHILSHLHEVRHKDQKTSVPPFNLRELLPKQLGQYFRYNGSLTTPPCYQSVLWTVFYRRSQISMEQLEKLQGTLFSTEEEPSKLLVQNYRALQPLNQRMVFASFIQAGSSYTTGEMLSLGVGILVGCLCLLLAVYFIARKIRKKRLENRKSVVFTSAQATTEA
Chain of Carbonic anhydrase 12 (O43570 whole entry): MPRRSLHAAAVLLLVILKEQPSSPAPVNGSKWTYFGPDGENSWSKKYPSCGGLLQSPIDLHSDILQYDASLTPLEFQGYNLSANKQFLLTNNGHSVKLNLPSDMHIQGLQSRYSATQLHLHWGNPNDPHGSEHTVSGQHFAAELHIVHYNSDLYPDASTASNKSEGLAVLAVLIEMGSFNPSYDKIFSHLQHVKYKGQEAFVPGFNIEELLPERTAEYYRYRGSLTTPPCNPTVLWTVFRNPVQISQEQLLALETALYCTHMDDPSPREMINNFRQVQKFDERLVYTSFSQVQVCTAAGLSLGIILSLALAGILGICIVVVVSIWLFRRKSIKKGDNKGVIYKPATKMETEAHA

| Compound | Ki (Carbonic anhydrase 9) [nM] | Ki (Carbonic anhydrase 12) [nM] | Ki (Carbonic anhydrase 14) [nM] | Ki (Carbonic anhydrase 2) [nM] | Ki (Carbonic anhydrase 1) [nM] | also measured |
| --- | --- | --- | --- | --- | --- | --- |
| C#Cc1cccc(S(N)(=O)=O)c1 | 65.7 | – | – | – | – | – |
| NS(=O)(=O)c1ccc(-c2cn([C@@H]3O[C@H](CO)[C@@H](O)[C@H](O)[C@H]3O)nn2)cc1 | – | 40.1 | 50.3 | – | – | microsomal CLint at 1 µM [3]: < 7 µL/min/mg; Activity (Albumin): 13%; recovery at 1.5 h, 20 µM [4]: 100%; microsomal CLint at 1 µM [5]: < 7 µL/min/mg; half-life at 5000 ng/mL [1]: > 250 min |
| NS(=O)(=O)c1ccc(-c2cn([C@@H]3O[C@H](CO)[C@H](O)[C@H](O)[C@H]3O)nn2)cc1 | 126 | 36.3 | 20.1 | 6.7 | 7950 | – |
| C#Cc1ccc(S(N)(=O)=O)cc1 | 54 | – | – | – | – | – |
| CC(C)CC(=O)OC[C@H]1O[C@@H](n2cc(-c3cccc(S(N)(=O)=O)c3)nn2)[C@H](OC(=O)CC(C)C)[C@@H](OC(=O)CC(C)C)[C@H]1OC(=O)CC(C)C | 254 | – | – | – | – | – |
| CCCCC(=O)OC[C@H]1O[C@@H](n2cc(-c3cccc(S(N)(=O)=O)c3)nn2)[C@H](OC(=O)CCCC)[C@@H](OC(=O)CCCC)[C@H]1OC(=O)CCCC | 800 | – | – | – | – | – |
| CCCC(=O)OC[C@H]1O[C@@H](n2cc(-c3cccc(S(N)(=O)=O)c3)nn2)[C@H](OC(=O)CCC)[C@@H](OC(=O)CCC)[C@H]1OC(=O)CCC | 69.2 | – | – | – | – | – |
| NS(=O)(=O)c1cccc(-c2cn([C@@H]3O[C@H](CO)[C@H](O)[C@H](O)[C@H]3O)nn2)c1 | 590 | – | – | – | – | – |
| CC(C)CC(=O)OC[C@H]1O[C@@H](n2cc(-c3cccc(S(N)(=O)=O)c3)nn2)[C@H](OC(=O)CC(C)C)[C@@H](OC(=O)CC(C)C)[C@@H]1OC(=O)CC(C)C | 724 | – | – | – | – | – |
| CCCCC(=O)OC[C@H]1O[C@@H](n2cc(-c3cccc(S(N)(=O)=O)c3)nn2)[C@H](OC(=O)CCCC)[C@@H](OC(=O)CCCC)[C@@H]1OC(=O)CCCC | 402 | – | – | – | – | – |
| CCCC(=O)OC[C@H]1O[C@@H](n2cc(-c3ccc(S(N)(=O)=O)cc3)nn2)[C@H](OC(=O)CCC)[C@@H](OC(=O)CCC)[C@@H]1OC(=O)CCC | 633 | 50.2 | 119 | 76.3 | 1800 | Activity (Albumin): 94%; solubility [6]: Insoluble; half-life at 5000 ng/mL [1]: 25 min |

Continued, in another order:

| Ki (Carbonic anhydrase 9) [nM] | Ki (Carbonic anhydrase 12) [nM] | Ki (Carbonic anhydrase 14) [nM] | Ki (Carbonic anhydrase 2) [nM] | Ki (Carbonic anhydrase 1) [nM] | Compound | also measured |
| --- | --- | --- | --- | --- | --- | --- |
| – | 67.1 | 104 | – | – | CC(=O)OC[C@H]1O[C@@H](n2cc(-c3ccc(S(N)(=O)=O)cc3)nn2)[C@H](OC(C)=O)[C@@H](OC(C)=O)[C@@H]1OC(C)=O | Activity (Albumin): 30%; half-life at 5000 ng/mL [1]: 7 min; recovery at 1.5 h, 15 µM [2]: 81% |
| 126 | – | – | – | – | CCC(=O)OC[C@H]1O[C@@H](n2cc(-c3cccc(S(N)(=O)=O)c3)nn2)[C@H](OC(=O)CC)[C@@H](OC(=O)CC)[C@H]1OC(=O)CC | – |
| 943 | – | – | – | – | CC(=O)OC[C@H]1O[C@@H](n2cc(-c3cccc(S(N)(=O)=O)c3)nn2)[C@H](OC(C)=O)[C@@H](OC(C)=O)[C@H]1OC(C)=O | – |
| 374 | 23.3 | 15.9 | 37.9 | 3210 | CC(C)CC(=O)OC[C@H]1O[C@@H](n2cc(-c3ccc(S(N)(=O)=O)cc3)nn2)[C@H](OC(=O)CC(C)C)[C@@H](OC(=O)CC(C)C)[C@H]1OC(=O)CC(C)C | – |
| – | 31 | 67.3 | 73.6 | 2130 | CCCCC(=O)OC[C@H]1O[C@@H](n2cc(-c3ccc(S(N)(=O)=O)cc3)nn2)[C@H](OC(=O)CCCC)[C@@H](OC(=O)CCCC)[C@H]1OC(=O)CCCC | – |
| – | 9.5 | 35.6 | 6.9 | 257 | CCCC(=O)OC[C@H]1O[C@@H](n2cc(-c3ccc(S(N)(=O)=O)cc3)nn2)[C@H](OC(=O)CCC)[C@@H](OC(=O)CCC)[C@H]1OC(=O)CCC | – |
| 5.1 | 5.4 | 10.9 | 8.1 | 78.8 | CCC(=O)OC[C@H]1O[C@@H](n2cc(-c3ccc(S(N)(=O)=O)cc3)nn2)[C@H](OC(=O)CC)[C@@H](OC(=O)CC)[C@H]1OC(=O)CC | – |
| 583 | – | – | – | – | CCCC(=O)OC[C@H]1O[C@@H](n2cc(-c3cccc(S(N)(=O)=O)c3)nn2)[C@H](OC(=O)CCC)[C@@H](OC(=O)CCC)[C@@H]1OC(=O)CCC | – |
| 480 | – | – | – | – | CC(=O)OC[C@H]1O[C@@H](n2cc(-c3cccc(S(N)(=O)=O)c3)nn2)[C@H](OC(C)=O)[C@@H](OC(C)=O)[C@@H]1OC(C)=O | – |
| 874 | – | – | – | – | CCC(=O)OC[C@H]1O[C@@H](n2cc(-c3cccc(S(N)(=O)=O)c3)nn2)[C@H](OC(=O)CC)[C@@H](OC(=O)CC)[C@@H]1OC(=O)CC | – |
| 426 | 52 | 40.1 | 440 | 9440 | CC(C)CC(=O)OC[C@H]1O[C@@H](n2cc(-c3ccc(S(N)(=O)=O)cc3)nn2)[C@H](OC(=O)CC(C)C)[C@@H](OC(=O)CC(C)C)[C@@H]1OC(=O)CC(C)C | microsomal CLint at 1 µM [3]: < 7 µL/min/mg; Activity (Albumin): > 99%; solubility [6]: Insoluble; microsomal CLint at 1 µM [5]: < 7 µL/min/mg; half-life at 5000 ng/mL [1]: > 250 min |
| – | 52.7 | 176 | 573 | 9230 | CCCCC(=O)OC[C@H]1O[C@@H](n2cc(-c3ccc(S(N)(=O)=O)cc3)nn2)[C@H](OC(=O)CCCC)[C@@H](OC(=O)CCCC)[C@@H]1OC(=O)CCCC | microsomal CLint at 1 µM [3]: < 7 µL/min/mg; Activity (Albumin): > 99%; solubility [6]: Insoluble; microsomal CLint at 1 µM [5]: < 7 µL/min/mg; half-life at 5000 ng/mL [1]: > 250 min |
| 475 | 7.4 | 256 | 71.1 | 2020 | CCC(=O)OC[C@H]1O[C@@H](n2cc(-c3ccc(S(N)(=O)=O)cc3)nn2)[C@H](OC(=O)CC)[C@@H](OC(=O)CC)[C@@H]1OC(=O)CC | recovery at 1.5 h, 8 µM [7]: 47%; Activity (Albumin): 77%; half-life at 5000 ng/mL [1]: 3 min |
| – | 9.7 | 15.8 | – | – | CC(=O)OC[C@H]1O[C@@H](n2cc(-c3ccc(S(N)(=O)=O)cc3)nn2)[C@H](OC(C)=O)[C@@H](OC(C)=O)[C@H]1OC(C)=O | – |
